Laboratory results as given in patent US7674795B2, “Fluorene derivatives, composition containing said derivatives and the use thereof” (Aventis Pharma SA, priority 2005, dated 2010).
Where a name gives a salt, the structure may show the parent alone.

Columns and labels:
Hsp82 = Hsp82 (Saccharomyces cerevisiae, UniProt P02829); assay: PK/LDH enzyme coupling test of the ATPase activity of Hsp82 (NADH decrease at 340 nm); assay type: biochemical; settings: 1 μM Hsp82, 250 μM ATP, 37° C., pyruvate kinase/lactate dehydrogenase coupling, read-out: Hsp82 ATPase IC50
Summary of the method: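 Yeast Hsp82 ATPase was coupled to PK/LDH, with ADP formation followed continuously as NADH loss at 340 nm at 37 °C. The mixture was preincubated 30 min at 37 °C, and the reaction was started with compound at variable concentrations plus Hsp82 at 1 μM. Initial rates (μM ADP/min) came from the tangent slope at origin, expressed as % inhibition.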

Chain of Hsp82 (P02829 whole entry): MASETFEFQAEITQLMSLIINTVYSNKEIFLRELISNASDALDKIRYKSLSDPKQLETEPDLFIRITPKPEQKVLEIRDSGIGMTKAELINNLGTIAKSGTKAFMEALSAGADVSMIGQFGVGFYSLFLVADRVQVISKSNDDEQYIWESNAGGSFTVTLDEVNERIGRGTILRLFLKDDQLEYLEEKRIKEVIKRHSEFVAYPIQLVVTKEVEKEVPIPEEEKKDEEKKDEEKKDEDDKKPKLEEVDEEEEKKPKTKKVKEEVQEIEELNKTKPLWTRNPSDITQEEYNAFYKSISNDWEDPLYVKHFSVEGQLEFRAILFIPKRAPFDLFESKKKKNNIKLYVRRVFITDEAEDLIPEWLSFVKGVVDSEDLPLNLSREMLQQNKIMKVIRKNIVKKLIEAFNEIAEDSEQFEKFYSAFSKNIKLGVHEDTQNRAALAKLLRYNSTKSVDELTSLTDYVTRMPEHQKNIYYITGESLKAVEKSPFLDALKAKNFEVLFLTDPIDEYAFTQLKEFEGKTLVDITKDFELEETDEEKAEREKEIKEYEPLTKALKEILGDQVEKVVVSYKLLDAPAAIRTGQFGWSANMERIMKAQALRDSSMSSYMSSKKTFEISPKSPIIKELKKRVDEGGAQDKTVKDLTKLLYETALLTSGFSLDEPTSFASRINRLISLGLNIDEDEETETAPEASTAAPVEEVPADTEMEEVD

With `O=C(NC1c2ccccc2-c2c(-c3nc4ccncc4[nH]3)cccc21)c1c[nH]c2ncccc12` (racemic) [Example 99, [4-(3H-imidazo[4,5-c]pyridin-2-yl)-9H-fluoren(R,S)-9-yl]amide of 1H-pyrrolo[2,3-b]pyridine-3-carboxylic acid] the IC50 (Hsp82) was < 1 µM and the melting point was 225 °C (dec.).

In the case of `O=C(NC1c2ccccc2-c2c(-c3nc4cnccc4[nH]3)cccc21)c1cccc2ncccc12` (racemic) [Example 14, [4-(3H-imidazo[4,5-c]pyridin-2-yl)-9H-fluoren-9(R,S)-yl]amide of quinoline-5-carboxylic acid], the IC50 (Hsp82) is reported as < 1 µM and the melting point is reported as 254 to 258 °C (dec.).

For `NC1c2ccccc2-c2c(-c3nc4ccc(F)cc4[nH]3)cccc21` (racemic) [Example 71, 4-(6-fluoro-1H-benzimidazol-2-yl)-9H-fluoren-9(R,S)-ylamine], the IC50 (Hsp82) was 10 to 100 µM and the melting point was 170 to 172 °C.

In the case of `Cn1cc(C(=O)NC2c3ccccc3-c3c(-c4nc5ccncc5[nH]4)cccc32)c2cccnc21` (racemic) [Example 101, [4-(3H-imidazo[4,5-c]pyridin-2-yl)-9H-fluoren-9(R,S)-yl]amide of 1-methyl-1H-pyrrolo[2,3-b]pyridine-3-carboxylic acid], the IC50 (Hsp82) is reported as 1 to 10 µM and the melting point is reported as 204 °C (dec.).

`COc1ccc(C(=O)NC2c3ccccc3-c3c(-c4nc5ccncc5[nH]4)cccc32)cc1` (racemic) [Example 127, N-[4-(3H-imidazo[4,5-c]pyridin-2-yl)-9H-fluoren-9(R,S)-yl]-4-methoxybenzamide] gave a melting point of 194 °C.

Molecule `Cc1cc(C(=O)NC2c3ccccc3-c3c(-c4nc5ccncc5[nH]4)cccc32)cc(Cl)n1` (racemic) [Example 123, 2-chloro-N-[4-(3H-imidazo[4,5-c]pyridin-2-yl)-9H-fluoren-9(R,S)-yl]-6-methyl-isonicotinamide] has an IC50 (Hsp82) of 1 to 10 µM and a melting point of 250 °C.

Molecule `O=C1c2ccccc2-c2c1cccc2-c1nc2cnccc2[nH]1` [Example 1, 4-(3H-imidazo[4,5-c]pyridin-2-yl)-fluoren-9-one] has an IC50 (Hsp82) of 1 to 10 µM and a melting point of 236 to 238 °C.

For `O=C(NC1c2ccccc2-c2c(-c3nc4ccncc4[nH]3)cccc21)c1cccc2[nH]ncc12` (racemic) [Example 111, [4-(3H-imidazo[4,5-c]pyridin-2-yl)-9H-fluoren-9(R,S)-yl]amide of 1H-indazole-4-carboxylic acid], the IC50 (Hsp82) was < 1 µM and the melting point was 230 to 235 °C.

For `NC(=O)c1cccc(C(=O)NC2c3ccccc3-c3c(-c4nc5ccncc5[nH]4)cccc32)c1` (racemic) [Example 126, N-[4-(3H-imidazo[4,5-c]pyridin-2-yl)-9H-fluoren-9(R,S)-yl]isophthalamide], the IC50 (Hsp82) was 1 to 10 µM.

Molecule `NN=C1c2ccccc2-c2c1cccc2-c1nc2cnccc2[nH]1` (mixture of isomers) [Example 9, N-[4-(1H-imidazo[4,5-c]pyridin-2-yl)-fluoren-9-ylidene]-hydrazine, 60/40 mixture of E and Z isomers] has an IC50 (Hsp82) of 1 to 10 µM.

For `O=C(NC1c2ccccc2-c2c(-c3nc4ccncc4[nH]3)cccc21)c1ccnc(Br)c1` (racemic) [Example 102, 2-bromo-N-[4-(3H-imidazo[4,5-c]pyridin-2-yl)-9H-fluoren-9(R,S)-yl]-isonicotinamide], the IC50 (Hsp82) was < 1 µM.

For `O=C(Cc1cccnc1)NC1c2ccccc2-c2c(-c3nc4cnccc4[nH]3)cccc21` (racemic) [Example 21, N-[4-(3H-imidazo[4,5-c]pyridin-2-yl)-9H-fluoren-9(R,S)-yl]-2-(pyridin-3-yl)-acetamide], the IC50 (Hsp82) was 1 to 10 µM.

`O=C1CCc2c1cccc2C(=O)NC1c2ccccc2-c2c(-c3nc4cnccc4[nH]3)cccc21` (racemic) [Example 60, [4-(3H-imidazo[4,5-c]pyridin-2-yl)-9H-fluoren-9(R,S)-yl]amide of 1-oxo-indan-4-carboxylic acid] showed an IC50 (Hsp82) of 1 to 10 µM.

With `O=C(NCc1ccncc1)C1c2ccccc2-c2c(-c3nc4cnccc4[nH]3)cccc21` (racemic) [Example 4, hydrochloride of the (pyridin-4-ylmethyl)-amide of 4-(3H-imidazo[4,5-c]pyridin-2-yl)-9H-fluorene-9(R,S)-carboxylic acid] the IC50 (Hsp82) was 10 to 100 µM.

With `O=C(NC1c2ccccc2-c2c(-c3nc4cnccc4[nH]3)cccc21)c1ccnc2ccccc12` (racemic) [Example 67, [4-(3H-imidazo[4,5-c]pyridin-2-yl)-9H-fluoren-9(R,S)-yl]amide of quinoline-4-carboxylic acid] the IC50 (Hsp82) was < 1 µM.

Molecule `O=C(Cc1n[nH]c(S)n1)NC1c2ccccc2-c2c(-c3nc4ccncc4[nH]3)cccc21` (racemic) [Example 42, N-[4-(3H-imidazo[4,5-c]pyridin-2-yl)-9H-fluoren-9(R,S)-yl]-2-(5-mercapto-4H-1,2,4-triazol-3-yl)-acetamide trifluoroacetate] has an IC50 (Hsp82) of 1 to 10 µM.

With `O=C(NC1c2ccccc2-c2c(-c3nc4ccncc4[nH]3)cccc21)c1ccc2[nH]nnc2c1` (racemic) [Example 41, [4-(3H-imidazo[4,5-c]pyridin-2-yl)-9H-fluoren-9(R,S)-yl]amide trifluoroacetate of 1H-benzotriazole-5-carboxylic acid] the IC50 (Hsp82) was < 1 µM.

Molecule `O=CNC1c2ccccc2-c2c(-c3nc4cnccc4[nH]3)cccc21` (racemic) [Example 12, N-[4-(3H-imidazo[4,5-c]pyridin-2-yl)-9H-fluoren-9(R,S)-yl]-formamide] has an IC50 (Hsp82) of 10 to 100 µM.

In the case of `O=C(NC1c2ccccc2-c2c(-c3nc4ccncc4[nH]3)cccc21)c1cc(O)nc(O)n1` (centres unmarked) [Example 88, [4-(3H-imidazo[4,5-c]pyridin-2-yl)-9H-fluoren-9-yl]amide of 2,6-dihydroxypyrimidine-4-carboxylic acid], the IC50 (Hsp82) is reported as 1 to 10 µM.

Work on `O=C(NC1c2ccccc2-c2c(-c3nc4ccncc4[nH]3)cccc21)c1cccnc1` (racemic) [Example 48, N-[4-(3H-imidazo[4,5-c]pyridin-2-yl)-9H-fluoren-9(R,S)-yl]-nicotinamide] yielded an IC50 (Hsp82) of 1 to 10 µM.

In the case of `O/N=C1/c2ccccc2-c2c1cccc2-c1nc2cnccc2[nH]1` [Example 23, 4-(3H-imidazo[4,5-c]pyridin-2-yl)-fluoren-9-one oxime (E)], the IC50 (Hsp82) is reported as < 1 µM.

`c1ccc2c(c1)Cc1cccc(-c3nc4cnccc4[nH]3)c1-2` [Example 7, 2-(9H-fluoren-4-yl)-3H-imidazo[4,5-c]pyridine] showed an IC50 (Hsp82) of 10 to 100 µM.

Molecule `Cc1noc(C)c1NC(=O)NC1c2ccccc2-c2c(-c3nc4ccncc4[nH]3)cccc21` (racemic) [Example 76, 1-(3,5-dimethyl-isoxazol-4-yl)-3-[4-(3H-imidazo[4,5-c]pyridin-2-yl)-9H-fluoren-9(R,S)-yl]-urea] has an IC50 (Hsp82) of 10 to 100 µM.

Work on `Nc1nc(CC(=O)NC2c3ccccc3-c3c(-c4nc5cnccc5[nH]4)cccc32)cs1` (racemic) [Example 24, trifluoroacetate of 2-(2-amino-thiazol-4-yl)-N-[4-(3H-imidazo[4,5-c]pyridin-2-yl)-9H-fluoren-9(R,S)-yl]-acetamide] yielded an IC50 (Hsp82) of 1 to 10 µM.

Work on `CC(C)(C)OC(=O)N[C@H](CC(N)=O)C(=O)NC1c2ccccc2-c2c(-c3nc4cnccc4[nH]3)cccc21` (stereo partly drawn) [Example 61, tert-butyl ester of {(R)-2-carbamoyl-1-[4-(3H-imidazo[4,5-c]pyridin-2-yl)-9H-fluoren-9(R,S)-ylcarbamoyl]-ethyl}-carbamoic acid] yielded an IC50 (Hsp82) of 1 to 10 µM.

`O=C(NCc1ccco1)NC1c2ccccc2-c2c(-c3nc4ccncc4[nH]3)cccc21` (racemic) [Example 74, 1-furan-2-ylmethyl-3-[4-(3H-imidazo[4,5-c]pyridin-2-yl)-9H-fluoren-9(R,S)-yl]-urea] gave an IC50 (Hsp82) of 10 to 100 µM.

Molecule `NC(=O)[C@H](N)CC(=O)NC1c2ccccc2-c2c(-c3nc4cnccc4[nH]3)cccc21` (mixture of isomers) [Example 62, (R)-2-amino-N4-[4-(3H-imidazo[4,5-c]pyridin-2-yl)-9H-fluoren-9(R,S)-yl]-succinamide] has an IC50 (Hsp82) of 1 to 10 µM.

With `O=C(N[C@H]1c2ccccc2-c2c(-c3nc4ccncc4[nH]3)cccc21)c1cccc2ncccc12` (single isomer, unassigned) [Example 14A] the IC50 (Hsp82) was < 1 µM.

Work on `Cc1ccc2c(C(=O)NC3c4ccccc4-c4c(-c5nc6ccncc6[nH]5)cccc43)cccc2n1` (centres unmarked) [Example 90, [4-(3H-imidazo[4,5-c]pyridin-2-yl)-9H-fluoren-9-yl]amide of 2-methyl-quinoline-5-carboxylic acid] yielded an IC50 (Hsp82) of 1 to 10 µM.

Molecule `c1ccc(CCNC2c3ccccc3-c3c(-c4nc5cnccc5[nH]4)cccc32)cc1` (racemic) [Example 16, N-[4-(3H-imidazo[4,5-c]pyridin-2-yl)-9H-fluoren-9(R,S)-yl]-phenethyl-amine] has an IC50 (Hsp82) of 10 to 100 µM.

For `O=C(NC1c2ccccc2-c2c(-c3nc4ccncc4[nH]3)cccc21)c1ccncc1O` (racemic) [Example 103, 3-hydroxy-N-[4-(3H-imidazo[4,5-c]pyridin-2-yl)-9H-fluoren-9(R,S)-yl]-isonicotinamide], the IC50 (Hsp82) was < 1 µM.
